Values quoted from earlier work in patent publication US20090062907A1, “Self-expanding valve for the venous system” (priority 2007, published 2009).

## C[C@H](CCC(=O)O)[C@H]1CC[C@H]2[C@@H]3CC[C@@H]4C[C@H](O)CC[C@]4(C)[C@H]3C[C@H](O)[C@]12C [Deoxycholic acid]
alcohol
  solubility in alcohol: soluble
water
  solubility in water: sparingly soluble
